Experimental data taken from US20260315431A1, “NANOMATERIAL ENCAPSULATED BIOFILM INHIBITORS FOR DENTAL CARIES TREATMENT” (THE UAB RESEARCH FOUNDATION, priority 2023, published 2026).
Entries after “also recorded” stand apart in the source; their conditions may differ.

Legend:
[1] = system: S. mutans UA159; test: Planktonic growth, S. mutans UA159 (OD470); assay type: cell-based, Streptococcus mutans
Method: (§1) The bacterial strains, S. mutans UA159, S. gordonii DL1, and S. sanguinis SK36 were inoculated statically at 37° C. under 5% CO2 in Todd Hewitt Broth (THB) for 24 h. The cultures were then diluted with fresh THB (1:5) and reinoculated until optical density at 470 nm (OD470) reached 1. The optical density was read using BioTek 800TS microplate reader at 470 nm for bacterial growth and 562 nm for biofilm stained with crystal violet. Data was plotted in Graphpad Prism9.
(§2) S. mutans, S. gordonii, and S. sanguinis growth assays. Effects of compounds on S. mutans and commensal bacterial growth were evaluated using the growth assay as described^69. S. mutans UA159, S. gordonii DL1, S. sanguinis SK36, cultures were grown for 24 h under 5% CO2 at 37° C. These cultures were then reinoculated with fresh THB (1:5) until OD470=1 when the bacteria were ready to be used. Different concentrations of the inhibitor were assayed in chemically defined media (CDM) with 1% of the bacteria, 1% sucrose and 1% DMSO in 96 well plates. The 96 well plates were incubated under 5% CO2 at 37° C. for 16 h. Growth of the bacteria was read after 16 h at OD470. Each assay was carried out at least in triplicate.
(§3) All bacterial strains (S. mutans UA159, S. gordonii DL1, and S. sanguinis SK36) were inoculated statically at 37° C. under 5% CO2 environment in Todd Hewitt Broth (THB) for 24 h^[61]. The cultures were then diluted with fresh THB (1:5) and reinoculated until the optical density at 470 nm reaches 1. The optical density was read using BioTek 800 TS absorbance reader at 470 nm for bacterial growth and 562 nm for biofilm stained with crystal violet. Data was plotted in Prism 10.0.2.
as §2, with “Effects” for “S. mutans, S. gordonii, and S. sanguinis growth assays. Effects”, “PEHA5, PEHA6, HA5 or HA6” for “compounds”, “described^[62].” for “described^69.”, “PEHA5, PEHA6, HA5 or HA6” for “inhibitor”, “CDM” for “chemically defined media (CDM)”

[2] = system: S. sanguinis SK36; test: Planktonic growth, S. sanguinis SK36 (OD470); assay type: cell-based, Streptococcus sanguinis
Method: as §1, §2, §3
as §2, with “Effects” for “S. mutans, S. gordonii, and S. sanguinis growth assays. Effects”, “PEHA5, PEHA6, HA5 or HA6” for “compounds”, “described^[62].” for “described^69.”, “PEHA5, PEHA6, HA5 or HA6” for “inhibitor”, “CDM” for “chemically defined media (CDM)”

[3] = Body weight of animals, HEBI / HA5 study; assay type: in vivo, Fischer 344 rats; details: for Weight: 100 μM (NaF 250 ppm), 4 weeks
Method: Rat model of dental caries. In vivo studies of colonization and virulence of S. mutans were evaluated using a previously reported rat model of dental caries^71. Offspring of gnotobiotic Fischer 344 rats used in this experiment were bred and maintained in trexler isolators. Male and female rat pups were removed from isolators at 20 days of age and randomly assigned into 5 treatment groups of 5 rats/group in cages with filter tops. Rats were then infected with S. mutans UA159 strain by oral swabbing daily for four consecutive days with a fresh overnight culture of S. mutans UA159. Rats were provided with caries promoting Teklad Diet 305 containing […] (Harlan Laboratories, Inc., Indianapolis, IN) and sterile drinking water ad libitum. Oral swabs were taken 5 days post-infection and plated on Todd Hewitt (TH) agar plates and incubated at 37° C. in an environment of 5% CO2 in the air to confirm colonization. Rats were weighed at weaning and at the termination of the experiment. One-week post-infection, the molars of the rats were treated topically twice daily for 4 weeks with the test compounds using camel-hair brushes. […] Each sample was serially diluted, plated on blood agar plates (BAP) and mitis-salivarius (MS) agar plates and incubated in an environment of 5% CO2 at 37° C. to quantify the level of total bacteria and S. mutans present in the plaque. […] After drying, the mandibles were sectioned and scored for caries activity using the Keyes method^68. Caries scores were recorded for the buccal, sulcal and proximal molar surfaces individually so that differences among the surfaces can be distinguished. Statistical significance in the mean caries scores, colony-forming units (CFUs)/mandible and body weights between groups of rats were determined by one-way analysis of variance (ANOVA) with the Tukey-Kramer multiple comparison test using the InStat program (Graphpad Software, San Diego, CA). […]

| Structure (SMILES) | viability of S. mutans ([1]; 25 μM and 50 μM) | planktonic growth of S. mutans ([1]; 50 μM) | growth of S. sanguinis ([2]; 25 μM and 50 μM) | growth of S. sanguinis ([2]; at biofilm inhibiting doses) | Weight [3] [g] | weight loss ([3]; 4-week treatment, 100 μM) | planktonic growth of S. mutans ([1]; 25 μM) | growth of S. mutans ([1]; 50 μM and 100 μM) | planktonic growth of S. sanguinis ([2]; 25 μM) | growth of S. sanguinis ([2]; 50 μM and 100 μM (100 μM)) |
| --- | --- | --- | --- | --- | --- | --- | --- | --- | --- | --- |
| O=C1/C(=C/c2cc(O)c(O)c(O)c2)Oc2ccccc21 [HA6, 2-[(3′,4′,5′-Trihydroxyphenyl)methylidene]-2,3-dihydro-1-benzofuran-3-one] | did not inhibit S. mutans viability | did not inhibit the planktonic growth; also recorded: no effect on growth; also recorded: inhibited the planktonic growth slightly | did not inhibit the growth | without affecting the growth | – | – | – | – | – | – |
| [F-].[Na+] [NaF, reference compound] | – | – | – | – | 161 ± 13 | – | – | – | – | – |
| O=C1/C(=C/c2cc(O)c(O)cc2O)Oc2ccccc21 [HA5, 2-[(2′,4′,5′-Trihydroxyphenyl)methylidene]-2,3-dihydro-1-benzofuran-3-one] | – | did not inhibit the planktonic growth; also recorded: no effect on growth; also recorded: did not inhibit the growth significantly | – | without affecting the growth | 137 ± 13 | did not experience any weight loss | did not affect the planktonic growth | did not inhibit S. mutans growth | did not affect the planktonic growth | did not inhibit the growth; also recorded: does not inhibit the growth |
